From US20240069010A1, “TISSUE ORGANOID BIOPRINTING AND HIGH-THROUGHPUT SCREENING METHODOLOGY” (priority 2020, published 2024)

Key:
BT-474 organoids = test: HSLCI mass tracking of bioprinted organoids in drug screening; type: cell-based; conditions: for Organoid Behavior (%) Lost Mass: mass loss >10%; for Organoid Behavior (%) Stable: mass change <10%; for Organoid Behavior (%) Gained Mass: mass increase >10%
Excerpt: (§1) Cells were bioprinted using a CELLINK BioX with a Temperature-Controlled Printhead. Gcode files were written to print the desired single-layer geometry. We wrote standardized blocks of Gcode encode the print path for the repeated geometries. MATLAB (MathWorks, Inc.) was used to integrate these standardized blocks into full Gcode files with the defined coordinates for each well. We used 8-well plates when printing the larger constructs as the depth of the well in a standard 24-well plate prohibited the use of 0.5″ length needles. Large rings were necessary to deposit a sufficient number of cells for RNA-Seq and IHC. Four rings with a diameter of 14.5 mm were printed for RNA sequencing (approximately 200,000 cells total), while four sets of concentric 14.5 mm, 12.5 mm, and 10.5 mm diameter rings were used for IHC analysis (approximately 500,000 cells total). We printed mini-squares with side length 3.9 mm for drug screening and HSLCI imaging. The mini-squares were inscribed within the circular well with sides parallel to the sides of the well plate. The open center of the constructs facilitates automatic manipulation with fluid handling equipment while the sides of the square are positioned to maximize the number of organoids imaged by HSLCI. The bioprinting process utilized the same material deposited for manually seeded organoids. A single cell suspension, aggregates or clusters in a 3:4 mixture of MammoCult™ and Matrigel® was prepared on ice. After vortexing briefly to homogenize, the mixture was transferred into a 3 mL syringe by removing the plunger and capping the opposite end. Once the plunger was replaced, the syringe was inverted, and bubbles were forced out of the tip. The material was then transferred to a room temperature 3 mL bioprinter cartridge (CELLINK) by connecting the syringe and cartridge with a double-sided female Luer lock adapter (CELLINK). Any air bubbles in the syringe were removed and the loaded cartridge was incubated in a rotating incubator (Enviro-Genie, Scientific Industries) for 30 minutes at the print temperature.
(§2) During the incubation period, the printer was sterilized with the built-in UV irradiation function and the printhead was set to the print temperature. […] The well masks were autoclaved prior to use. The masks were inserted into the well plate and pressed in contact with the glass surface. Rubber bands were used to hold the masks in place and ensure conformal contact was maintained throughout the plasma treatment. The well plates were treated with oxygen plasma in a PE-25 (Plasma Etch) for 30-90 seconds, 15 minutes prior to bioprinting. After plasma treatment, the well plate was placed in the bioprinter and Automatic Bed Levelling (ABL) was performed.
(§3) Once the incubation period ended, we attached a 0.5″ 25-gauge needle and loaded the cartridge into the pre-cooled printhead. We primed the needle by extruding a small volume of material at 15 kPa prior to calibrating the printer. Just before printing, we cleared the needle of the gelled material by extruding a small volume using 40 kPa prior to starting the print. To create constructs of the appropriate thicknesses, prints in 8-well plates were extruded at 15 kPa while prints in 96-well plates were extruded at 12-15 kPa. […] After printing, the constructs were incubated at 37° C. for at least 30 minutes to solidify the matrix and 100 μL of MammoCult™ medium was then added.
(§4) The HSLCI platform was installed inside a standard cell culture incubator. For all growth kinetics studies and drug screening, organoids were imaged in 96-well glass-bottom plates (Cellvis P96-1.5H-N) using a 40× objective (Nikon, NA 0.75). Organoids were seeded as single-cell suspensions in a 3:4 mixture of MammoCult™ and Matrigel® as described above and were grown at 37° C. and 5% CO2 in MammoCult™ medium supplemented with 1% antibiotic-antimycotic (Gibco 15240-062).

MCF-7 organoids = test: as above; type: cell-based; conditions: for Organoid Behavior (%) Stable / Organoid Behavior (%) Gained Mass / Organoid Behavior (%) Lost Mass: MCF-7 organoids; for Organoid Behavior (%) Stable: mass change <10%; for Organoid Behavior (%) Gained Mass: mass increase >10%; for Organoid Behavior (%) Lost Mass: mass loss >10%
Excerpt: as §1, §2, §3, §4

[1] = in vivo; cited from earlier work

SMILES: CS(=O)(=O)CCNCc1ccc(-c2ccc3ncnc(Nc4ccc(OCc5cccc(F)c5)c(Cl)c4)c3c2)o1 [Lapatinib, lapatinib]
- Mean mass of BT-474 organoids, Mean mass ± SD (BT-474 organoids; 0.1 μM, 6 hours of treatment): 1.84 ± 1.21 ng
- Mean mass of BT-474 organoids, Mean mass ± SD (BT-474 organoids; 0.1 μM, 48 hours of treatment): 2.33 ± 1.58 ng
- Mean mass of BT-474 organoids, Mean mass ± SD (BT-474 organoids; 1 μM, 6 hours of treatment): 1.58 ± 0.78 ng
- Mean mass of BT-474 organoids, Mean mass ± SD (BT-474 organoids; 1 μM, 48 hours of treatment): 1.48 ± 0.66 ng
- Mean mass of BT-474 organoids, Mean mass ± SD (BT-474 organoids; 10 μM, 6 hours of treatment): 1.74 ± 0.88 ng
- Mean mass of BT-474 organoids, Mean mass ± SD (BT-474 organoids; 10 μM, 48 hours of treatment): 1.42 ± 0.75 ng
- Mean mass of BT-474 organoids, Mean mass ± SD (BT-474 organoids; 50 μM, 6 hours of treatment): 1.58 ± 0.70 ng
- Mean mass of BT-474 organoids, Mean mass ± SD (BT-474 organoids; 50 μM, 48 hours of treatment): 0.92 ± 0.48 ng
- Organoid Behavior (%) Lost Mass (BT-474 organoids; BT-474 organoids, 0.1 μM, 12 h): 3.1%
- Organoid Behavior (%) Stable (BT-474 organoids; BT-474 organoids, 0.1 μM, 24 h): 45.6%
- Organoid Behavior (%) Gained Mass (BT-474 organoids; BT-474 organoids, 0.1 μM, 24 h): 49.1%
- Organoid Behavior (%) Lost Mass (BT-474 organoids; BT-474 organoids, 0.1 μM, 24 h): 5.3%
- Organoid Behavior (%) Stable (BT-474 organoids; BT-474 organoids, 0.1 μM, 48 h): 25.8%
- Organoid Behavior (%) Gained Mass (BT-474 organoids; BT-474 organoids, 0.1 μM, 48 h): 67.7%
- Organoid Behavior (%) Lost Mass (BT-474 organoids; BT-474 organoids, 0.1 μM, 48 h): 6.5%
- Organoid Behavior (%) Lost Mass (BT-474 organoids; BT-474 organoids, 1 μM, 12 h): 7.4%
- Organoid Behavior (%) Stable (BT-474 organoids; BT-474 organoids, 1 μM, 24 h): 54.2%
- Organoid Behavior (%) Gained Mass (BT-474 organoids; BT-474 organoids, 1 μM, 24 h): 20.3%
- Organoid Behavior (%) Lost Mass (BT-474 organoids; BT-474 organoids, 1 μM, 24 h): 25.4%
- Organoid Behavior (%) Stable (BT-474 organoids; BT-474 organoids, 1 μM, 48 h): 50.0%
- Organoid Behavior (%) Gained Mass (BT-474 organoids; BT-474 organoids, 1 μM, 48 h): 27.5%
- Organoid Behavior (%) Lost Mass (BT-474 organoids; BT-474 organoids, 1 μM, 48 h): 22.5%
- Organoid Behavior (%) Gained Mass (BT-474 organoids; BT-474 organoids, 10 μM, 12 h): 19.6%
- Organoid Behavior (%) Lost Mass (BT-474 organoids; BT-474 organoids, 10 μM, 12 h): 7.1%
- Organoid Behavior (%) Stable (BT-474 organoids; BT-474 organoids, 10 μM, 24 h): 60.3%
- Organoid Behavior (%) Gained Mass (BT-474 organoids; BT-474 organoids, 10 μM, 24 h): 9.5%
- Organoid Behavior (%) Lost Mass (BT-474 organoids; BT-474 organoids, 10 μM, 24 h): 30.2%
- Organoid Behavior (%) Stable (BT-474 organoids; BT-474 organoids, 10 μM, 48 h): 47.2%
- Organoid Behavior (%) Gained Mass (BT-474 organoids; BT-474 organoids, 10 μM, 48 h): 15.1%
- Organoid Behavior (%) Lost Mass (BT-474 organoids; BT-474 organoids, 10 μM, 48 h): 37.7%
- Organoid Behavior (%) Lost Mass (BT-474 organoids; BT-474 organoids, 50 μM, 12 h): 18.5%
- Organoid Behavior (%) Stable (BT-474 organoids; BT-474 organoids, 50 μM, 24 h): 55.6%
- Organoid Behavior (%) Gained Mass (BT-474 organoids; BT-474 organoids, 50 μM, 24 h): 9.7%
- Organoid Behavior (%) Lost Mass (BT-474 organoids; BT-474 organoids, 50 μM, 24 h): 34.7%
- Organoid Behavior (%) Gained Mass (BT-474 organoids; BT-474 organoids, 50 μM, 48 h): 3.8%
- Organoid Behavior (%) Lost Mass (BT-474 organoids; BT-474 organoids, 50 μM, 48 h): 84.6%
- lowest concentration at which organoids were affected (average mass) (BT-474 organoids; BT-474 organoids, 48 h): 1 µM
- Mean mass of MCF-7 organoids, Mean mass ± SD (MCF-7 organoids; 0.1 μM, 6 hours of treatment): 2.00 ± 1.43 ng
- Mean mass of MCF-7 organoids, Mean mass ± SD (MCF-7 organoids; 0.1 μM, 48 hours of treatment): 2.76 ± 2.35 ng
- Mean mass of MCF-7 organoids, Mean mass ± SD (MCF-7 organoids; 1 μM, 6 hours of treatment): 2.20 ± 1.33 ng
- Mean mass of MCF-7 organoids, Mean mass ± SD (MCF-7 organoids; 1 μM, 48 hours of treatment): 2.71 ± 2.09 ng
- Mean mass of MCF-7 organoids, Mean mass ± SD (MCF-7 organoids; 10 μM, 6 hours of treatment): 2.30 ± 1.48 ng
- Mean mass of MCF-7 organoids, Mean mass ± SD (MCF-7 organoids; 10 μM, 48 hours of treatment): 2.46 ± 1.90 ng
- Mean mass of MCF-7 organoids, Mean mass ± SD (MCF-7 organoids; 50 μM, 6 hours of treatment): 1.71 ± 0.84 ng
- Mean mass of MCF-7 organoids, Mean mass ± SD (MCF-7 organoids; 50 μM, 48 hours of treatment): 1.32 ± 1.03 ng
- Mean mass of MCF-7 organoids, Mean mass ± SD (MCF-7 organoids; 50 μM, 48 hours of treatment, listed as lapatinib): 1.32 ± 1.06 ng
- Organoid Behavior (%) Stable (MCF-7 organoids; 0.1 μM, 12 h): 73.5%
- Organoid Behavior (%) Gained Mass (MCF-7 organoids; 0.1 μM, 12 h): 17.6%
- Organoid Behavior (%) Lost Mass (MCF-7 organoids; 0.1 μM, 12 h): 8.8%
- Organoid Behavior (%) Stable (MCF-7 organoids; 0.1 μM, 24 h): 56.3%
- Organoid Behavior (%) Gained Mass (MCF-7 organoids; 0.1 μM, 24 h): 28.1%
- Organoid Behavior (%) Lost Mass (MCF-7 organoids; 0.1 μM, 24 h): 15.6%
- Organoid Behavior (%) Stable (MCF-7 organoids; 0.1 μM, 48 h): 34.4%
- Organoid Behavior (%) Gained Mass (MCF-7 organoids; 0.1 μM, 48 h): 46.9%
- Organoid Behavior (%) Lost Mass (MCF-7 organoids; 0.1 μM, 48 h): 18.8%
- Organoid Behavior (%) Stable (MCF-7 organoids; 1 μM, 12 h): 88.2%
- Organoid Behavior (%) Gained Mass (MCF-7 organoids; 1 μM, 12 h): 8.8%
- Organoid Behavior (%) Lost Mass (MCF-7 organoids; 1 μM, 12 h): 2.9%
- Organoid Behavior (%) Stable (MCF-7 organoids; 1 μM, 24 h): 45.2%
- Organoid Behavior (%) Gained Mass (MCF-7 organoids; 1 μM, 24 h): 45.2%
- Organoid Behavior (%) Lost Mass (MCF-7 organoids; 1 μM, 24 h): 9.7%
- Organoid Behavior (%) Stable (MCF-7 organoids; 1 μM, 48 h): 26.3%
- Organoid Behavior (%) Gained Mass (MCF-7 organoids; 1 μM, 48 h): 55.3%
- Organoid Behavior (%) Lost Mass (MCF-7 organoids; 1 μM, 48 h): 18.4%
- Organoid Behavior (%) Stable (MCF-7 organoids; 10 μM, 12 h): 84.1%
- Organoid Behavior (%) Gained Mass (MCF-7 organoids; 10 μM, 12 h): 6.8%
- Organoid Behavior (%) Lost Mass (MCF-7 organoids; 10 μM, 12 h): 9.1%
- Organoid Behavior (%) Stable (MCF-7 organoids; 10 μM, 24 h): 56.5%
- Organoid Behavior (%) Gained Mass (MCF-7 organoids; 10 μM, 24 h): 26.1%
- Organoid Behavior (%) Lost Mass (MCF-7 organoids; 10 μM, 24 h): 17.4%
- Organoid Behavior (%) Stable (MCF-7 organoids; 10 μM, 48 h): 32.4%
- Organoid Behavior (%) Gained Mass (MCF-7 organoids; 10 μM, 48 h): 32.4%
- Organoid Behavior (%) Stable (MCF-7 organoids; 50 μM, 12 h): 58.6%
- Organoid Behavior (%) Gained Mass (MCF-7 organoids; 50 μM, 12 h): 6.9%
- Organoid Behavior (%) Stable (MCF-7 organoids; 50 μM, 24 h): 39.3%
- Organoid Behavior (%) Gained Mass (MCF-7 organoids; 50 μM, 24 h): 14.3%
- Organoid Behavior (%) Lost Mass (MCF-7 organoids; 50 μM, 24 h): 46.4%
- Organoid Behavior (%) Stable (MCF-7 organoids; 50 μM, 48 h): 43.5%
- Organoid Behavior (%) Gained Mass (MCF-7 organoids; 50 μM, 48 h): 4.3%
- Organoid Behavior (%) Lost Mass (MCF-7 organoids; 50 μM, 48 h): 52.2%
- maximum plasma concentration reported [1]: 4.2 µM
